Experimental data published in patent publication US10501479B2, “Benzenesulfonyl-asymmetric ureas and medical uses thereof” (HELSINN HEALTHCARE SA, priority 2016, dated 2019).
Read-outs that look alike come from different tables or passages of the source.

Columns and labels:
[1] = molecular target: T1, recombinant human ghrelin receptor (HEK293/GRLN) (Homo sapiens, UniProt Q92847); assay: Ghrelin inverse agonist potency (EC50) with IP-1 (IP-One HTRF) assay; assay type: cell-based; conditions: IP-1 assay
T1 construct: expressed in transfected cells
T1 sequence (Q92847 whole entry): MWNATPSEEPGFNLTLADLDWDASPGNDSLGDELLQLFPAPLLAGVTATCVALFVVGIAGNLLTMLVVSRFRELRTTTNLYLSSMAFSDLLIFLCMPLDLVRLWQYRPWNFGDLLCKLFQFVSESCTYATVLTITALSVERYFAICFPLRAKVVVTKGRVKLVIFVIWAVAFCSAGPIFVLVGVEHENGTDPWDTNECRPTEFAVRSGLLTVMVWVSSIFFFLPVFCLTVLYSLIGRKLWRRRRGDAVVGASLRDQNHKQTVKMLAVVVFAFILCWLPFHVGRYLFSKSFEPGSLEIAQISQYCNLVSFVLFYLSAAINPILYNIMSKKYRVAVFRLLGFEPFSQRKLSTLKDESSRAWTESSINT
Outline: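 HEK293/GRLN cells were seeded 18-22 hours before the test, then exposed to compound in stimulation buffer for 1 hour at 37° C, 5% CO2. IP-1 was detected by IP-One HTRF (IP1-d2 plus Tb-cryptate, 1 hour RT), reading 620 and 665 nm; the inverse agonist EC50 was derived from this.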

[2] = molecular target: T2, GHSR-1a (HEK293/GHSR1a cell line) (Homo sapiens, UniProt Q92847); assay: Ghrelin agonist potency (EC50) with calcium FLIPR assay; assay type: cell-based
T2 construct: expressed in transfected cells; host or cells: HEK293/GHSR1a cell line
T2 sequence (Q92847 whole entry): as above
Outline: (§1)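 Dye preload 30-60 min, RT or 37° C; compound in DMSO. Agonist mode: compound at t=20 sec, Ca2+ read 2 min. Antagonist mode: compound + ghrelin 10 nM at t=20 sec, 2 min read. EC50/IC50 from dose-response curves.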

[3] = molecular target: T2, GHSR-1a (HEK293/GHSR1a cell line); assay: Ghrelin antagonist potency (IC50) with calcium FLIPR assay, ghrelin 10 nM; assay type: cell-based
Outline: as §1

[4] = Metabolic stability in human liver microsomes; assay type: in vitro ADME
Outline: (§2)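 Parent compound was measured by LC-MS/MS at 0, 10, 30 and 90 min after NADPH-initiated incubation with liver microsomes at 37 °C. Buffer was 100 mM potassium phosphate, pH 7.4; time-zero concentration was taken before NADPH addition.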

[5] = Metabolic stability in mouse liver microsomes; assay type: in vitro ADME
Outline: as §2

[6] = HEK293/GRLN, read-out: Activity EC50 (ghrelin inverse agonist potency)
[7] = HEK293/GHSR1a, read-out: Activity EC50/EMax: EC50 (ghrelin agonist potency)
[8] = HEK293/GHSR1a, ghrelin 10 nM, read-out: Activity IC50 (ghrelin antagonist potency)
[9] = ghrelin inverse agonist potency, read-out: Activity EC50
[10] = ghrelin agonist potency, read-out: Activity EC50/EMax
[11] = ghrelin antagonist potency, read-out: Activity IC50

CC(NC(=O)Nc1ccc(S(=O)(=O)Cc2ccc3c(c2)CN(C)C3)cc1F)c1ccccc1 (stereo not drawn) [H1317, 1-(2-fluoro-4-(((2-methylisoindolin-5-yl)methyl)sulfonyl)phenyl)-3-(1-phenylethyl)urea] showed an EC50 [1, 6] of 18.2 nM, an EC50 [2, 7] greater than 30 µM and an IC50 [3, 8] of 48.4 nM. The “Metabolic Stability Study H = human” value [4] was 96.7 µL/min/mg and the “Metabolic Stability Study M = mouse” value [5] was 102.8 µL/min/mg.

With COc1cc(S(=O)(=O)Cc2ccc3c(c2)CNC3)ccc1NC(=O)NC(C)c1ccccc1OC (stereo not drawn) [H1393, 1-(4-((isoindolin-5-ylmethyl)sulfonyl)-2-methoxyphenyl)-3-(1-(2-methoxyphenyl)ethyl)urea] the EC50 [1, 6] was 3.73 nM, the EC50 [2, 7] was greater than 30 µM and the IC50 [3, 8] was 9.2 nM. The “Metabolic Stability Study H = human” value [4] was 55.5 µL/min/mg and the “Metabolic Stability Study M = mouse” value [5] was 55.1 µL/min/mg.

Work on C[C@@H](NC(=O)Nc1ccc(S(=O)(=O)Nc2ccnc(N)n2)cc1)c1cccc(Cl)c1Cl [H1364, (R)-N-(2-aminopyrimidin-4-yl)-4-(3-(1-(2,3-dichlorophenyl)ethyl)ureido) benzenesulfonamide] yielded an EC50 [1, 6] of 130 nM, an EC50 [2, 7] greater than 30 µM and an IC50 [3, 8] of 29.6 nM. The “Metabolic Stability Study H = human” value [4] was less than 10 µL/min/mg and the “Metabolic Stability Study M = mouse” value [5] was 36 µL/min/mg.

In the case of C[C@@H](NC(=O)Nc1ccc(S(=O)(=O)Cc2ccc3c(c2)CCN(C)C3)cc1)c1cccc(Cl)c1Cl [H1343, (R)-1-(1-(2,3-dichlorophenyl)ethyl)-3-(4-(((2-methyl-1,2,3,4-tetrahydroisoquinolin-6-yl)methyl)sulfonyl)phenyl)urea], the EC50 [1, 6] is reported as 2.1 nM, the EC50 [2, 7] is reported as greater than 30 µM and the IC50 [3, 8] is reported as 5.2 nM. For the same molecule, the “Metabolic Stability Study H = human” value [4] was 71.9 µL/min/mg and the “Metabolic Stability Study M = mouse” value [5] was 252.4 µL/min/mg.

With CC(NC(=O)Nc1ccc(S(=O)(=O)Cc2ccc3c(c2)CN(C)C3)cc1)c1ccc(F)cc1 (stereo not drawn) [H1268, 1-(1-(4-fluorophenyl)ethyl)-3-(4-(((2-methylisoindolin-5-yl)methyl)sulfonyl)phenyl)urea] the EC50 [1, 6] was 29.9 nM, the EC50 [2, 7] was greater than 30 µM and the IC50 [3, 8] was 83.2 nM. The “Metabolic Stability Study H = human” value [4] was 108.7 µL/min/mg and the “Metabolic Stability Study M = mouse” value [5] was 60.5 µL/min/mg.

COc1cc(S(=O)(=O)Cc2ccc3c(c2)CCNC3)ccc1NC(=O)N[C@@H](C)c1cccc(Cl)c1Cl [H1482, (S)-1-(1-(2,3-dichlorophenyl)ethyl)-3-(2-methoxy-4-(((1,2,3,4-tetrahydroisoquinolin-6-yl)methyl)sulfonyl)phenyl)urea] showed an EC50 [1, 9] of 0.4 nM, an EC50 [2, 10] greater than 30 µM and an IC50 [3, 11] of 0.282 nM. For the same molecule, the “Metabolic Stability Study H = human” value [4] was less than 10 µL/min/mg and the “Metabolic Stability Study M = mouse” value [5] was 12.5 µL/min/mg.

In the case of CC(c1cccc(Cl)c1Cl)N(O)C(=O)Nc1ccc(S(=O)(=O)Cc2ccc3c(c2)CNC3)cc1.O=C(O)C(F)(F)F (stereo not drawn) [H1509, 1-(1-(2,3-dichlorophenyl)ethyl)-1-hydroxy-3-(4-((isoindolin-5-ylmethyl)sulfonyl)phenyl)urea], the EC50 [1, 9] is reported as 1 nM, the EC50 [2, 10] is reported as greater than 30 µM and the IC50 [3, 11] is reported as 0.336 nM. The “Metabolic Stability Study H = human” value [4] was 15.9 µL/min/mg and the “Metabolic Stability Study M = mouse” value [5] was 16.0 µL/min/mg.

CC(NC(=O)Nc1ccc(S(=O)(=O)Cc2ccc3c(c2)CCN(C)C3)cc1)c1ccccc1F (stereo not drawn) [H1342, 1-(1-(2-fluorophenyl)ethyl)-3-(4-(((2-methyl-1,2,3,4-tetrahydroisoquinolin-6-yl)methyl)sulfonyl)phenyl)urea] showed an EC50 [1, 6] of 7.9 nM, an EC50 [2, 7] greater than 30 µM and an IC50 [3, 8] of 17.4 nM. For the same molecule, the “Metabolic Stability Study H = human” value [4] was 80.1 µL/min/mg and the “Metabolic Stability Study M = mouse” value [5] was 118.4 µL/min/mg.

C[C@@H](NC(=O)Nc1ccc(S(=O)(=O)Cc2ccc3c(c2F)CNC3)cc1)c1ccccc1 [H1396, (R)-1-(4-(((4-fluoroisoindolin-5-yl)methyl)sulfonyl)phenyl)-3-(1-phenylethyl)urea] showed an EC50 [1, 6] of 1.3 nM, an EC50 [2, 7] greater than 30 µM and an IC50 [3, 8] of 10.8 nM. The “Metabolic Stability Study H = human” value [4] was 62.5 µL/min/mg and the “Metabolic Stability Study M = mouse” value [5] was 330.4 µL/min/mg.

Work on CC(NC(=O)Nc1ccc(S(=O)(=O)Cc2ccc3c(c2)CNC3)cc1)c1cccc(F)c1 (stereo not drawn) [H1269, 1-(1-(3-fluorophenyl)ethyl)-3-(4-((isoindolin-5-ylmethyl)sulfonyl)phenyl)urea] yielded an EC50 [1, 6] of 8.8 nM, an EC50 [2, 7] greater than 30 µM and an IC50 [3, 8] of 24 nM. The “Metabolic Stability Study H = human” value [4] was 25.7 µL/min/mg and the “Metabolic Stability Study M = mouse” value [5] was 23.6 µL/min/mg.

COc1cccc(C(C)NC(=O)Nc2ccc(S(=O)(=O)Cc3ccc4c(c3)CN(C)C4)cc2)c1 (stereo not drawn) [H1327, 1-(1-(3-methoxyphenyl)ethyl)-3-(4-(((2-methylisoindolin-5-yl)methyl)sulfonyl)phenyl)urea] gave an EC50 [1, 6] of 5.5 nM, an EC50 [2, 7] greater than 30 µM and an IC50 [3, 8] of 5.6 nM. For the same molecule, the “Metabolic Stability Study H = human” value [4] was 165.3 µL/min/mg and the “Metabolic Stability Study M = mouse” value [5] was 144.8 µL/min/mg.

COC(=O)c1cc(NC(=O)NC(C)c2ccccc2)ccc1S(=O)(=O)Cc1ccc2c(c1)CNC2 (stereo not drawn) [H1505, methyl 2-((isoindolin-5-ylmethyl)sulfonyl)-5-(3-(1-phenylethyl)ureido)benzoate] showed an EC50 [1, 9] of 11.7 nM, an EC50 [2, 10] greater than 30 µM and an IC50 [3, 11] of 8.28 nM. The “Metabolic Stability Study H = human” value [4] was 37.3 µL/min/mg and the “Metabolic Stability Study M = mouse” value [5] was 135.5 µL/min/mg.

In the case of CC(NC(=O)Nc1ccc(S(=O)(=O)Cc2ccc3c(c2)CNC3)cc1C1CC1)c1ccccc1 (stereo not drawn) [H1484, 1-(2-cyclopropyl-4-((isoindolin-5-ylmethyl)sulfonyl)phenyl)-3-(1-phenylethyl)urea], the EC50 [1, 9] is reported as 7.1 nM, the EC50 [2, 10] is reported as greater than 30 µM and the IC50 [3, 11] is reported as 21.7 nM. The “Metabolic Stability Study H = human” value [4] was 116.7 µL/min/mg and the “Metabolic Stability Study M = mouse” value [5] was 149.3 µL/min/mg.

Work on CC(NC(=O)Nc1ccc(S(=O)(=O)Cc2ccc3c(c2)CNC3)c(C2CC2)c1)c1ccccc1 (stereo not drawn) [H1506, 1-(3-cyclopropyl-4-((isoindolin-5-ylmethyl)sulfonyl)phenyl)-3-(1-phenylethyl)urea] yielded an EC50 [1, 9] of 4.2 nM, an EC50 [2, 10] greater than 30 µM and an IC50 [3, 11] of 2.28 nM. The “Metabolic Stability Study H = human” value [4] was 49.2 µL/min/mg and the “Metabolic Stability Study M = mouse” value [5] was 132.5 µL/min/mg.

CC(NC(=O)Nc1ccc(S(=O)(=O)Cc2ccc3c(c2)CN(C2COC2)C3)cc1)c1ccccc1 (stereo not drawn) [H1319, 1-(4-(((2-(oxetan-3-yl)isoindolin-5-yl)methyl)sulfonyl)phenyl)-3-(1-phenylethyl)urea] showed an EC50 [1, 6] of 12.5 nM, an EC50 [2, 7] greater than 30 µM and an IC50 [3, 8] of 41 nM. For the same molecule, the “Metabolic Stability Study H = human” value [4] was 195.6 µL/min/mg and the “Metabolic Stability Study M = mouse” value [5] was greater than 500 µL/min/mg.

Molecule C[C@H](NC(=O)Nc1ccc(S(=O)(=O)Cc2ccc3c(c2)CCNCC3)cc1)c1ccccc1 [H1306, (S)-1-(1-phenylethyl)-3-(4-(((2,3,4,5-tetrahydro-1H-benzo[d]azepin-7-yl)methyl)sulfonyl)phenyl)urea] has an EC50 [1, 6] of 74.6 nM, an EC50 [2, 7] greater than 30 µM and an IC50 [3, 8] of 62 nM. For the same molecule, the “Metabolic Stability Study H = human” value [4] was 31.2 µL/min/mg and the “Metabolic Stability Study M = mouse” value [5] was 19.6 µL/min/mg.

CC(NC(=O)Nc1ccc(S(=O)(=O)Cc2ccc3c(c2)CNC3)cc1)c1cc(F)cc(F)c1 (stereo not drawn) [H1445, 1-(1-(3,5-difluorophenyl)ethyl)-3-(4-((isoindolin-5-ylmethyl)sulfonyl)phenyl)urea] gave an EC50 [1, 6] of 3.9 nM, an EC50 [2, 7] greater than 30 µM and an IC50 [3, 8] of 23.8 nM. For the same molecule, the “Metabolic Stability Study H = human” value [4] was 19.4 µL/min/mg and the “Metabolic Stability Study M = mouse” value [5] was 17.3 µL/min/mg.

For COc1cc(NC(=O)N(O)C(C)c2ccccc2F)ccc1S(=O)(=O)Cc1ccc2c(c1)CNC2 (stereo not drawn) [H1510, 1-(1-(2-fluorophenyl)ethyl)-1-hydroxy-3-(4-((isoindolin-5-ylmethyl)sulfonyl)-3-methoxyphenyl)urea], the EC50 [1, 9] was 3.5 nM, the EC50 [2, 10] was greater than 30 µM and the IC50 [3, 11] was 5.36 nM. For the same molecule, the “Metabolic Stability Study H = human” value [4] was 23.8 µL/min/mg and the “Metabolic Stability Study M = mouse” value [5] was 18.4 µL/min/mg.

CC(NC(=O)Nc1ccc(S(=O)(=O)Cc2ccc3c(c2)CN(C)C3)cc1)c1ccccc1Cl (stereo not drawn) [H1267, 1-(1-(2-chlorophenyl)ethyl)-3-(4-(((2-methylisoindolin-5-yl)methyl)sulfonyl)phenyl)urea] showed an EC50 [1, 6] of 4.7 nM, an EC50 [2, 7] greater than 30 µM and an IC50 [3, 8] of 9.2 nM. The “Metabolic Stability Study H = human” value [4] was 109.8 µL/min/mg and the “Metabolic Stability Study M = mouse” value [5] was 147.8 µL/min/mg.

Molecule CC(NC(=O)Nc1ccc(S(=O)(=O)Nc2ccc3c(c2)CN(C)C3)cc1)c1ccccc1 (stereo not drawn) [H1308, N-(2-methylisoindolin-5-yl)-4-(3-(1-phenylethyl)ureido) benzenesulfonamide] has an EC50 [1, 6] of 31.2 nM, an EC50 [2, 7] greater than 30 µM and an IC50 [3, 8] of 23.5 nM. For the same molecule, the “Metabolic Stability Study H = human” value [4] was 49.4 µL/min/mg and the “Metabolic Stability Study M = mouse” value [5] was 38.5 µL/min/mg.

COc1cc(NC(=O)N(O)C(C)c2ccccc2)ccc1S(=O)(=O)Cc1ccc2c(c1)CNC2 (stereo not drawn) [H1515, 1-hydroxy-3-(4-((isoindolin-5-ylmethyl)sulfonyl)-3-methoxyphenyl)-1-(1-phenylethyl)urea] gave an EC50 [1, 9] of 9.6 nM, an EC50 [2, 10] greater than 30 µM and an IC50 [3, 11] of 15.7 nM. For the same molecule, the “Metabolic Stability Study H = human” value [4] was 15.2 µL/min/mg and the “Metabolic Stability Study M = mouse” value [5] was 18.4 µL/min/mg.
